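Five concentrations, 48 hours, 96-well plates. GI50 = concentration required for 50% inhibition of growth. TGI is the concentration that stops growth completely.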
Columns and labels:
Assay in all cases: DTP human tumour cell line panel, 48 h
MDA-MB-231 breast = tested on: MDA-MB-231 breast
COLO 205 colon = tested on: COLO 205 colon
SK-MEL-5 melanoma = tested on: SK-MEL-5 melanoma
EKVX NSCLC = tested on: EKVX NSCLC
786-0 renal = tested on: 786-0 renal
NCI/ADR-RES ovarian = tested on: NCI/ADR-RES ovarian
DU-145 prostate = tested on: DU-145 prostate
SF-539 CNS = tested on: SF-539 CNS
A498 renal = tested on: A498 renal
UO-31 renal = tested on: UO-31 renal
OVCAR-3 ovarian = tested on: OVCAR-3 ovarian
UACC-62 melanoma = tested on: UACC-62 melanoma
CAKI-1 renal = tested on: CAKI-1 renal
BT-549 breast = tested on: BT-549 breast
M14 melanoma = tested on: M14 melanoma
OVCAR-4 ovarian = tested on: OVCAR-4 ovarian
SN12C renal = tested on: SN12C renal
SF-295 CNS = tested on: SF-295 CNS
SK-MEL-2 melanoma = tested on: SK-MEL-2 melanoma
T-47D breast = tested on: T-47D breast
HOP-62 NSCLC = tested on: HOP-62 NSCLC
LOX IMVI melanoma = tested on: LOX IMVI melanoma
SNB-75 CNS = tested on: SNB-75 CNS
MDA-MB-435 = tested on: MDA-MB-435
HT29 colon = tested on: HT29 colon
RPMI-8226 leukemia = tested on: RPMI-8226 leukemia
U251 CNS = tested on: U251 CNS
TK-10 renal = tested on: TK-10 renal
SK-OV-3 ovarian = tested on: SK-OV-3 ovarian
RXF 393 renal = tested on: RXF 393 renal
SK-MEL-28 melanoma = tested on: SK-MEL-28 melanoma
PC-3 prostate = tested on: PC-3 prostate
HS 578T breast = tested on: HS 578T breast
MOLT-4 leukemia = tested on: MOLT-4 leukemia
OVCAR-5 ovarian = tested on: OVCAR-5 ovarian
NCI-H226 lung = tested on: NCI-H226 lung
NCI-H23 lung = tested on: NCI-H23 lung
A549 NSCLC = tested on: A549 NSCLC
HOP-92 NSCLC = tested on: HOP-92 NSCLC
IGROV1 ovarian = tested on: IGROV1 ovarian
SR leukemia = tested on: SR leukemia
SF-268 CNS = tested on: SF-268 CNS
SNB-19 CNS = tested on: SNB-19 CNS
HCT-15 colon = tested on: HCT-15 colon
KM12 colon = tested on: KM12 colon
MCF7 breast = tested on: MCF7 breast
CCRF-CEM leukemia = tested on: CCRF-CEM leukemia
HCT-116 colon = tested on: HCT-116 colon
NCI-H460 lung = tested on: NCI-H460 lung
SW-620 colon = tested on: SW-620 colon
NCI-H522 lung = tested on: NCI-H522 lung
HL-60(TB) leukemia = tested on: HL-60(TB) leukemia
UACC-257 melanoma = tested on: UACC-257 melanoma
K-562 leukemia = tested on: K-562 leukemia
ACHN renal = tested on: ACHN renal
OVCAR-8 ovarian = tested on: OVCAR-8 ovarian
MALME-3M melanoma = tested on: MALME-3M melanoma
HCC-2998 colon = tested on: HCC-2998 colon

CCc1c2c(nc3ccc(OC(=O)OCc4ccc(B5OC(C)(C)C(C)(C)O5)cc4)cc13)-c1cc3c(c(=O)n1C2)COC(=O)[C@]3(O)CC
GI50 (MDA-MB-231 breast): 892 nM | TGI (MDA-MB-231 breast): 43700 nM | GI50 (COLO 205 colon): 80.4 nM | TGI (COLO 205 colon): 24500 nM | GI50 (SK-MEL-5 melanoma): 21.7 nM | TGI (SK-MEL-5 melanoma): 118 nM | GI50 (EKVX NSCLC): 345 nM | TGI (EKVX NSCLC): > 55200 nM | GI50 (786-0 renal): < 10 nM | TGI (786-0 renal): 289 nM | GI50 (NCI/ADR-RES ovarian): 27.3 nM | TGI (NCI/ADR-RES ovarian): > 100000 nM | GI50 (DU-145 prostate): < 10 nM | TGI (DU-145 prostate): > 53300 nM | GI50 (SF-539 CNS): < 10 nM | TGI (SF-539 CNS): 28.6 nM | GI50 (A498 renal): 11 nM | TGI (A498 renal): 72.5 nM | GI50 (UO-31 renal): 18.9 nM | TGI (UO-31 renal): 339 nM | GI50 (OVCAR-3 ovarian): 71.6 nM | TGI (OVCAR-3 ovarian): 1460 nM | GI50 (UACC-62 melanoma): < 10 nM | TGI (UACC-62 melanoma): 104 nM | GI50 (CAKI-1 renal): < 10 nM | TGI (CAKI-1 renal): 315 nM | GI50 (BT-549 breast): < 29.1 nM | TGI (BT-549 breast): 1510 nM | GI50 (M14 melanoma): < 10 nM | TGI (M14 melanoma): 920 nM | GI50 (OVCAR-4 ovarian): 210 nM | TGI (OVCAR-4 ovarian): > 30800 nM | GI50 (SN12C renal): < 10 nM | TGI (SN12C renal): > 54700 nM | GI50 (SF-295 CNS): < 10 nM | TGI (SF-295 CNS): 1480 nM | GI50 (SK-MEL-2 melanoma): 326 nM | TGI (SK-MEL-2 melanoma): 8570 nM | GI50 (T-47D breast): < 10 nM | TGI (T-47D breast): > 100000 nM | GI50 (HOP-62 NSCLC): < 10 nM | TGI (HOP-62 NSCLC): 3270 nM | GI50 (LOX IMVI melanoma): < 10 nM | TGI (LOX IMVI melanoma): 196 nM | GI50 (SNB-75 CNS): < 11.7 nM | TGI (SNB-75 CNS): 184 nM | GI50 (MDA-MB-435): 52.3 nM | TGI (MDA-MB-435): 1530 nM | GI50 (HT29 colon): 43.6 nM | TGI (HT29 colon): > 100000 nM | GI50 (RPMI-8226 leukemia): 224 nM | GI50 (U251 CNS): < 10 nM | TGI (U251 CNS): > 34300 nM | GI50 (TK-10 renal): 880 nM | TGI (TK-10 renal): > 100000 nM | GI50 (SK-OV-3 ovarian): 15.1 nM | TGI (SK-OV-3 ovarian): > 100000 nM | GI50 (RXF 393 renal): 13.6 nM | TGI (RXF 393 renal): 134 nM | GI50 (SK-MEL-28 melanoma): 262 nM | TGI (SK-MEL-28 melanoma): 7320 nM | GI50 (PC-3 prostate): 51.4 nM | TGI (PC-3 prostate): > 100000 nM | GI50 (HS 578T breast): 547 nM | TGI (HS 578T breast): 19800 nM | GI50 (MOLT-4 leukemia): < 10 nM | TGI (MOLT-4 leukemia): > 100000 nM | GI50 (OVCAR-5 ovarian): 114 nM | TGI (OVCAR-5 ovarian): 6230 nM | GI50 (NCI-H226 lung): 11 nM | TGI (NCI-H226 lung): 157 nM | GI50 (NCI-H23 lung): < 10.7 nM | TGI (NCI-H23 lung): 437 nM | GI50 (A549 NSCLC): 55.6 nM | TGI (A549 NSCLC): 5450 nM | GI50 (HOP-92 NSCLC): 26.9 nM | TGI (HOP-92 NSCLC): 14400 nM | GI50 (IGROV1 ovarian): 100 nM | TGI (IGROV1 ovarian): 3480 nM | GI50 (SR leukemia): < 10 nM | TGI (SR leukemia): > 100000 nM | GI50 (SF-268 CNS): < 10 nM | TGI (SF-268 CNS): 1690 nM | GI50 (SNB-19 CNS): < 10 nM | TGI (SNB-19 CNS): > 100000 nM | GI50 (HCT-15 colon): 127 nM | TGI (HCT-15 colon): > 100000 nM | GI50 (KM12 colon): 73 nM | TGI (KM12 colon): 16100 nM | GI50 (MCF7 breast): < 10 nM | TGI (MCF7 breast): > 100000 nM | GI50 (CCRF-CEM leukemia): < 10 nM | TGI (CCRF-CEM leukemia): > 100000 nM | GI50 (HCT-116 colon): < 11.1 nM | TGI (HCT-116 colon): > 100000 nM | GI50 (NCI-H460 lung): < 10 nM | TGI (NCI-H460 lung): 182 nM | GI50 (SW-620 colon): < 12.7 nM | GI50 (NCI-H522 lung): 19.6 nM | TGI (NCI-H522 lung): 14200 nM | GI50 (HL-60(TB) leukemia): 12.1 nM | TGI (HL-60(TB) leukemia): 22300 nM | GI50 (UACC-257 melanoma): 116 nM | TGI (UACC-257 melanoma): 3220 nM | GI50 (K-562 leukemia): 36.8 nM | TGI (K-562 leukemia): > 100000 nM | GI50 (ACHN renal): < 10 nM | TGI (ACHN renal): 432 nM | GI50 (OVCAR-8 ovarian): < 11.1 nM | TGI (OVCAR-8 ovarian): > 71400 nM | GI50 (MALME-3M melanoma): 27.9 nM | TGI (MALME-3M melanoma): 637 nM | GI50 (HCC-2998 colon): 66.1 nM | TGI (HCC-2998 colon): 3860 nM

— PubChem BioAssay (NCI)
